# Laboratory results taken from patent US20080003214A1, “Medicaments Comprising Carbonyl Compounds, And The Use Thereof” (priority 2004, published 2008).
# Test system: not given
# Assay: not given
# Conditions: not given
row,melting point,Compound
1,145 °C,"[N-]=[N+]=N[C@H]1C[C@H](C(=O)Nc2ccc(N3CCOCC3=O)cc2)N(C(=O)Nc2ccc(Cl)cc2)C1 [Compound A9, 1-N-[(4-chlorophenyl)]-2-N-{[4-(3-oxomorpholin-4-yl)phenyl]}-(2R,4S)-4-azidopyrrolidine-1,2-dicarboxamide]"

# Biological target: factor Xa (Homo sapiens, UniProt P00742)
# Assay: Inhibition of factor Xa (FXa-IC50)
# Type: biochemical
# Conditions: Table 1, headed 'Affinity to receptors'; read-out: FXa-IC50
# Source text: The inhibition of factor Xa by the compounds according to the invention and the measurement of the anticoagulant and antithrombotic activity can be determined by conventional in-vitro or in-vivo methods. A suitable method is described, for example, by J. Hauptmann et al. in Thrombosis and Haemostasis 1990, 63, 220-223.
# The inhibition of factor Xa can be measured, for example by the method of T. Hara et al. in Thromb. Haemostas. 1994, 71, 314-319.
# factor Xa, sequence (P00742 235-488 limits assumed): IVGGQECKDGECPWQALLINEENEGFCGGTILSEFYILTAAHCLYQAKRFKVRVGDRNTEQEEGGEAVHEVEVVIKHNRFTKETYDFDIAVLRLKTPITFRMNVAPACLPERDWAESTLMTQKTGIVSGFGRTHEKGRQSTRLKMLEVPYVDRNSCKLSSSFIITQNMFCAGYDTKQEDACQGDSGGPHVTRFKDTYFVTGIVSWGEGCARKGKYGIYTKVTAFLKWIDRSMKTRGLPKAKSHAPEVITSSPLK
# factor Xa, sequence (P00742 41-179 partner limits assumed): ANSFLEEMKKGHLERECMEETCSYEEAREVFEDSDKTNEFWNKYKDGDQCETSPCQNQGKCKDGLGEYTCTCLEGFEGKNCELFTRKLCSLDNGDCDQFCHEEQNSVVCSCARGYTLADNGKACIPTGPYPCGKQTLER
row,Compound,IC50
1,"O=C(Nc1ccc(N2CCOCC2=O)cc1)[C@H]1CCCN1C(=O)Nc1ccc(Cl)cc1 [Compound A1, 1-N-[(4-chlorophenyl)]-2-N-{[4-(3-oxomorpholin-4-yl)phenyl]}-(R)-pyrrolidine-1,2-dicarboxamide]",18 nM
2,"O=C(Nc1ccc(-n2ccccc2=O)cc1)[C@H]1C[C@@H](O)CN1C(=O)Nc1ccc(Cl)cn1 [Compound A6, 1-N-[(5-chloropyridin-2-yl)]-2-N-{[4-(2-oxo-2H-pyridin-1-yl)phenyl]}-(2R,4R)-4-hydroxypyrrolidine-1,2-dicarboxamide]",3.7 nM
3,O=C(Nc1ccc(N2CCOCC2=O)cc1)[C@H]1CCCN1C(=O)c1ccc(Cl)s1 [AB1],1800 nM

# Same assay, conditions: read-out: IC50(Xa)
row,Compound,IC50
1,"Cc1nn(-c2ccc(NC(=O)[C@H]3C[C@@H](OC(C)C)CN3C(=O)Nc3ccc(Cl)cc3)cc2)c(=N)s1 [1-N-[(4-chlorophenyl)]-2-N-{[4-(2-imino-5-methyl-1,3,4-thiadiazol-3-yl)phenyl]}-(2R,4R)-4-isopropoxypyrrolidine-1,2-dicarboxamide]",3 nM
2,"CO[C@@H]1C[C@H](C(=O)Nc2ccc(-n3nc(C)sc3=N)cc2)N(C(=O)Nc2ccc(Cl)cc2)C1 [1-N-[(4-chlorophenyl)]-2-N-{[4-(2-imino-5-methyl-1,3,4-thiadiazol-3-yl)phenyl]}-(2R,4R)-4-methoxypyrrolidine-1,2-dicarboxamide]",6.1 nM
3,"CCO[C@@H]1C[C@H](C(=O)Nc2ccc(-n3nc(C)sc3=N)cc2)N(C(=O)Nc2ccc(Cl)cc2)C1 [1-N-[(4-chlorophenyl)]-2-N-{[4-(2-imino-5-methyl-1,3,4-thiadiazol-3-yl)phenyl]}-(2R,4R)-4-ethoxypyrrolidine-1,2-dicarboxamide]",4.8 nM

# Further lines, results first:
row,IC50,Compound
1,25 nM,"Nc1ccc(O[C@H]2C[C@H](C(=O)Nc3ccc(N4CCOCC4=O)cc3)N(C(=O)Nc3ccc(Cl)cc3)C2)cc1 [Example 13-16, 1-N-[(4-chlorophenyl)]-2-N-{[4-(3-oxomorpholin-4-yl)phenyl]}-(2R,4S)-4-(4-aminophenoxy)pyrrolidine-1,2-dicarboxamide]"
2,9.7 nM,"O=C(Nc1ccc(N2CCOCC2=O)cc1)[C@H]1C[C@@H](OCC(F)(F)F)CN1C(=O)Nc1ccc(Cl)cc1 [Example 13-18, 1-N-[(4-chlorophenyl)]-2-N-{[4-(3-oxomorpholin-4-yl)phenyl]}-(2R,4R)-4-(2,2,2-trifluoroethoxy)pyrrolidine-1,2-dicarboxamide]"
